Columns and labels:
[1] = tested on: PC-3 (prostate adenocarcinoma); experiment: alamarBlue anti-proliferation assay, Prostate PC-3; format: cell-based, human; conditions: for Percent Growth (Mean ± SEM, n = 2): 72 hour
Description: (§1) The growth effects of compound 29 was tested on 8 different human tumour cell lines. Changes in cell proliferation based on the ability of viable cells to cause alamar Blue to change from its oxidized (non-fluorescent, blue) to a reduced (fluorescent, red) form were evaluated. With the results obtained from the alamarBlue reaction, cell proliferation was quantified and metabolic activity of viable cells examined. Test compound, (29), was tested for its effect on the proliferation of 8 different human tumor cell lines at five final assay concentrations from 100 to 0.01 μM through serial 10-fold dilutions, respectively.
(§2) Compound 29 was dissolved in 100% ethanol and then diluted with Phosphate Buffer Saline (PBS, pH=7.4) to obtain initial working solutions of 10000, 1000, 100, 10 and 1 μM in 40% ethanol. In testing, 100-fold dilution was made in culture media to get final assay concentrations of 100, 10, 1, 0.1 and 0.01 μM in 0.4% of ethanol.
(§3) Aliquots of 100 μl of cell suspension (about 2.5-5×10^3/well) were placed in 96well microtiter plates in an atmosphere of 5% CO2 at 37° C. After 24 hours, 100 μl of growth medium, 2 μL of test solution or vehicle (40% DMSO), was added respectively per well in duplicate for an additional 72 hour incubation. Thus, the final concentration of DMSO was 0.4%. The test compound was evaluated at concentrations of 100, 10, 1, 0.1 and 0.01 μM. At the end of the incubation, 20 μL of alamarBlue 75% reagent was added to each well for another 6-hour incubation before detection of cell viability by fluorescent intensity. Fluorescent intensity was measured using a Spectrafluor Plus plate reader with excitation at 530 nm and emission at 590 nm.
(§4) PG(%)=100×(Mean Ftest−Mean Ftime0)/(Mean Fctrl−Mean Ftime0).
(§5) PG(%)=100×(Mean Ftest−Mean Ftime0)/(Mean Ftime0−Mean Fblank)
(§6) A decrease of 50% or more (≧50%) in fluorescent intensity relative to vehicle-treated control indicated significant cytostatic or cytotoxic activity, and a semi-quantitative IC50, TGI and LC50 were then determined by nonlinear regression using GraphPad Prism (GraphPad Software, U.S.A.).
(§7) IC50 (50% Inhibition Concentration): Test Compound concentration at which the increase from time0 in the number or mass of treated cells was only 50% as much as the corresponding increase in the vehicle-control at the end of experiment.
(§8) TGI (Total Growth Inhibition): Test compound concentration at which the number or mass of treated cells at the end of the experiment was equal to that at time0.
(§9) LC50 (50% Lethal Concentration): Test compound concentration at which the number of mass of treated cells at the end of the experiment was half that at time0.

[2] = tested on: KB-16 (human nasopharyngeal carcinoma); experiment: Growth inhibition of tumor cell line KB-16 (Table 1); format: cell-based; conditions: 3 day drug exposure; columns A/B = scaffold type
[3] = tested on: MCF-7 (breast adenocarcinoma); experiment: alamarBlue anti-proliferation assay, Breast MCF-7; format: cell-based, human; conditions: for Percent Growth (Mean ± SEM, n = 2): 72 hour
Description: as §1, §2, §3, §4, §5, §6, §7, §8, §9

[4] = tested on: A-549 (human lung adenocarcinoma); experiment: Growth inhibition of tumor cell line A-549 (Table 1); format: cell-based; conditions: 6 day drug exposure; columns A/B = scaffold type
[5] = tested on: HT-29 (human colon adenocarcinoma); experiment: Growth inhibition of tumor cell line HT-29 (Table 1); format: cell-based; conditions: 6 day drug exposure; columns A/B = scaffold type
[6] = tested on: HepG2 (hepatoblastoma, liver); experiment: alamarBlue anti-proliferation assay, Liver HepG2; format: cell-based, human; conditions: for Percent Growth (Mean ± SEM, n = 2): 72 hour
Description: as §1, §2, §3, §4, §5, §6, §7, §8, §9

[7] = tested on: U-937 (histiocytic lymphoma); experiment: alamarBlue anti-proliferation assay, Lymphoma U-937; format: cell-based, human; conditions: for Percent Growth (Mean ± SEM, n = 2): 72 hour
Description: as §1, §2, §3, §4, §5, §6, §7, §8, §9

[8] = tested on: HT-29 (colon adenocarcinoma); experiment: alamarBlue anti-proliferation assay, Colon HT-29; format: cell-based, human; conditions: for Percent Growth (Mean ± SEM, n = 2): 72 hour
Description: as §1, §2, §3, §4, §5, §6, §7, §8, §9

P-388 (murine leukemia) = experiment: Growth inhibition of tumor cell line P-388 (Table 1); format: cell-based; conditions: 3 day drug exposure; columns A/B = scaffold type
PC-6 (lung carcinoma) = experiment: alamarBlue anti-proliferation assay, Lung PC-6; format: cell-based, human; conditions: for Percent Growth (Mean ± SEM, n = 2): 72 hour
Description: as §1, §2, §3, §4, §5, §6, §7, §8, §9

[9] = tested on: T47D (breast ductal carcinoma); experiment: alamarBlue anti-proliferation assay, Breast T47D; format: cell-based, human; conditions: 72 hour
Description: as §1, §2, §3, §4, §5, §6, §7, §8, §9

[10] = tested on: HL-60 (promyelocytic leukemia); experiment: alamarBlue anti-proliferation assay, Leukemia HL-60; format: cell-based, human; conditions: for Percent Growth (Mean ± SEM, n = 2): 72 hour
Description: as §1, §2, §3, §4, §5, §6, §7, §8, §9

SMILES: CCn1c2ccccc2c2cc(C3=NCCc4c3[nH]c3ccccc43)ccc21 [Compound 29, 1-(9′-Ethyl-3′-carbazole)-3,4-dihydro-β-carboline]
- Percent Growth (Mean ± SEM, n = 2) ([1]; PC-3, 0.01 μM): 100 ± 1%
- Percent Growth (Mean ± SEM, n = 2) ([1]; PC-3, 0.1 μM): 94 ± 3%
- Percent Growth (Mean ± SEM, n = 2) ([1]; PC-3, 1 μM): 82 ± 4%
- Percent Growth (Mean ± SEM, n = 2) ([1]; PC-3, 10 μM): −17 ± 9%
- Percent Growth (Mean ± SEM, n = 2) ([1]; PC-3, 100 μM): −93 ± 1%
- Estimated TGI (Total Growth Inhibition) ([1]; PC-3, 72 hour, semi-quantitative): 6.2 µM
- IC50 ([1]; PC-3, 72 hour, semi-quantitative, read-out: Estimated IC50 (50% Inhibition Concentration)): 2.5 µM
- LC50 (50% lethal concentration) ([1]; PC-3, 72 hour, semi-quantitative, read-out: Estimated cIC50 (footnote c: LC50, 50% Lethal Concentration)): 15 µM
- IC50, concentration inhibiting 50% of the growth of KB-16 [2]: <1 ng/mL
- Percent Growth (Mean ± SEM, n = 2) ([3]; MCF-7, 0.01 μM): 97 ± 1%
- Percent Growth (Mean ± SEM, n = 2) ([3]; MCF-7, 0.1 μM): 94 ± 7%
- Percent Growth (Mean ± SEM, n = 2) ([3]; MCF-7, 1 μM): 85 ± 8%
- Percent Growth (Mean ± SEM, n = 2) ([3]; MCF-7, 10 μM): −48 ± 11%
- Percent Growth (Mean ± SEM, n = 2) ([3]; MCF-7, 100 μM): −100 ± 0%
- Estimated TGI (Total Growth Inhibition) ([3]; MCF-7, 72 hour, semi-quantitative): 4.2 µM
- IC50 ([3]; MCF-7, 72 hour, semi-quantitative, read-out: Estimated IC50 (50% Inhibition Concentration)): 2 µM
- LC50 (50% lethal concentration) ([3]; MCF-7, 72 hour, semi-quantitative, read-out: Estimated cIC50 (footnote c: LC50, 50% Lethal Concentration)): 8.3 µM
- IC50, concentration inhibiting 50% of the growth of A-549 [4]: <1 ng/mL
- IC50, concentration inhibiting 50% of the growth of HT-29 [5]: <1 ng/mL
- Percent Growth (Mean ± SEM, n = 2) ([6]; HepG2, 0.01 μM): 106 ± 2%
- Percent Growth (Mean ± SEM, n = 2) ([6]; HepG2, 0.1 μM): 96 ± 11%
- Percent Growth (Mean ± SEM, n = 2) ([6]; HepG2, 1 μM): 81 ± 4%
- Percent Growth (Mean ± SEM, n = 2) ([6]; HepG2, 10 μM): −27 ± 7%
- Percent Growth (Mean ± SEM, n = 2) ([6]; HepG2, 100 μM): −100 ± 3%
- Estimated TGI (Total Growth Inhibition) ([6]; HepG2, 72 hour, semi-quantitative): 5.2 µM
- IC50 ([6]; HepG2, 72 hour, semi-quantitative, read-out: Estimated IC50 (50% Inhibition Concentration)): 2.2 µM
- LC50 (50% lethal concentration) ([6]; HepG2, 72 hour, semi-quantitative, read-out: Estimated cIC50 (footnote c: LC50, 50% Lethal Concentration)): 12.5 µM
- Percent Growth (Mean ± SEM, n = 2) ([7]; U-937, 0.01 μM): 103 ± 3%
- Percent Growth (Mean ± SEM, n = 2) ([7]; U-937, 0.1 μM): 97 ± 6%
- Percent Growth (Mean ± SEM, n = 2) ([7]; U-937, 1 μM): 90 ± 2%
- Percent Growth (Mean ± SEM, n = 2) ([7]; U-937, 10 μM): −3 ± 4%
- Percent Growth (Mean ± SEM, n = 2) ([7]; U-937, 100 μM): −93 ± 0%
- Estimated TGI (Total Growth Inhibition) ([7]; U-937, 72 hour, semi-quantitative): 7.9 µM
- IC50 ([7]; U-937, 72 hour, semi-quantitative, read-out: Estimated IC50 (50% Inhibition Concentration)): 3.5 µM
- LC50 (50% lethal concentration) ([7]; U-937, 72 hour, semi-quantitative, read-out: Estimated cIC50 (footnote c: LC50, 50% Lethal Concentration)): 18.3 µM
- Percent Growth (Mean ± SEM, n = 2) ([8]; HT-29, 0.01 μM): 97 ± 4%
- Percent Growth (Mean ± SEM, n = 2) ([8]; HT-29, 0.1 μM): 101 ± 8%
- Percent Growth (Mean ± SEM, n = 2) ([8]; HT-29, 1 μM): 85 ± 3%
- Percent Growth (Mean ± SEM, n = 2) ([8]; HT-29, 10 μM): −30 ± 15%
- Percent Growth (Mean ± SEM, n = 2) ([8]; HT-29, 100 μM): −94 ± 3%
- Estimated TGI (Total Growth Inhibition) ([8]; HT-29, 72 hour, semi-quantitative): 5.2 µM
- IC50 ([8]; HT-29, 72 hour, semi-quantitative, read-out: Estimated IC50 (50% Inhibition Concentration)): 2.3 µM
- LC50 (50% lethal concentration) ([8]; HT-29, 72 hour, semi-quantitative, read-out: Estimated cIC50 (footnote c: LC50, 50% Lethal Concentration)): 11.7 µM
- IC50, concentration inhibiting 50% of the growth of P-388 (P-388 (murine leukemia)): < 1 ng/mL
- Percent Growth (Mean ± SEM, n = 2) (PC-6 (lung carcinoma); PC-6, 0.01 μM): 101 ± 1%
- Percent Growth (Mean ± SEM, n = 2) (PC-6 (lung carcinoma); PC-6, 0.1 μM): 97 ± 5%
- Percent Growth (Mean ± SEM, n = 2) (PC-6 (lung carcinoma); PC-6, 1 μM): 95 ± 5%
- Percent Growth (Mean ± SEM, n = 2) (PC-6 (lung carcinoma); PC-6, 10 μM): 24 ± 2%
- Percent Growth (Mean ± SEM, n = 2) (PC-6 (lung carcinoma); PC-6, 100 μM): −79 ± 11%
- Estimated TGI (Total Growth Inhibition) (PC-6 (lung carcinoma); PC-6, 72 hour, semi-quantitative): 12.5 µM
- IC50 (PC-6 (lung carcinoma); PC-6, 72 hour, semi-quantitative, read-out: Estimated IC50 (50% Inhibition Concentration)): 5 µM
- LC50 (50% lethal concentration) (PC-6 (lung carcinoma); PC-6, 72 hour, semi-quantitative, read-out: Estimated cIC50 (footnote c: LC50, 50% Lethal Concentration)): 32.5 µM
- Percent Growth (Mean ± SEM, n = 2) ([9]; 0.01 μM): 92 ± 2%
- Percent Growth (Mean ± SEM, n = 2) ([9]; 0.1 μM): 88 ± 6%
- Percent Growth (Mean ± SEM, n = 2) ([9]; 1 μM): 89 ± 3%
- Percent Growth (Mean ± SEM, n = 2) ([9]; 10 μM): 25 ± 3%
- Percent Growth (Mean ± SEM, n = 2) ([9]; 100 μM): −100 ± 4%
- Estimated TGI (Total Growth Inhibition) ([9]; semi-quantitative): 10.8 µM
- IC50 ([9]; semi-quantitative, read-out: Estimated IC50 (50% Inhibition Concentration)): 6 µM
- LC50 (50% lethal concentration) ([9]; semi-quantitative, read-out: Estimated cIC50 (footnote c: LC50, 50% Lethal Concentration)): 19.2 µM
- Percent Growth (Mean ± SEM, n = 2) ([10]; HL-60, 0.01 μM): 99 ± 2%
- Percent Growth (Mean ± SEM, n = 2) ([10]; HL-60, 0.1 μM): 90 ± 6%
- Percent Growth (Mean ± SEM, n = 2) ([10]; HL-60, 1 μM): 73 ± 5%
- Percent Growth (Mean ± SEM, n = 2) ([10]; HL-60, 10 μM): 9 ± 3%
- Percent Growth (Mean ± SEM, n = 2) ([10]; HL-60, 100 μM): −100 ± 2%
- Estimated TGI (Total Growth Inhibition) ([10]; HL-60, 72 hour, semi-quantitative): 8.3 µM
- IC50 ([10]; HL-60, 72 hour, semi-quantitative, read-out: Estimated IC50 (50% Inhibition Concentration)): 3.2 µM
- LC50 (50% lethal concentration) ([10]; HL-60, 72 hour, semi-quantitative, read-out: Estimated cIC50 (footnote c: LC50, 50% Lethal Concentration)): 22 µM
